Data reported in patent US10709705B2, “Aminopyrimidines as ALK inhibitors” (THE REGENTS OF THE UNIVERSITY OF MICHIGAN, priority 2016, dated 2020).
Where two headings read alike, the source gives them in different places.

What was measured:
ALK F1174L = ALK F1174L (Homo sapiens, UniProt Q9UM73, F1174L); assay: Cell based assay, ALK F1174L; design: key: + = active; −− = inactive; settings: Table 5
LRRK2(G2019S) = biological target: T1, LRRK2(G2019S) (Homo sapiens, UniProt Q5S007, G2019S); assay: KINOMEscan kinase panel, LRRK2(G2019S); assay type: binding
T1 construct: purchased LeadHunter Discovery Services (currently DiscoverX Corporation), KINOMEscan screening service
Excerpt: (§1) Cpd. No. 5 was screened for its activity against a panel of human kinases using the KINOMEscan™ screening platform from LeadHunter Discovery Services (currently DiscoverX Corporation (Fremont, Calif. 94538, United States). See Table 7.

[1] = Pharmacokinetics in SD rats; assay type: in vivo; settings: Table 8 (SD rats); for AUC0-t (ng · h/mL) PO / AUC0-∞ (ng · h/mL) PO / Cmax(ng/mL) PO / Tmax (h) PO / t1/2 (h) PO: PO 10 mg/kg, 10 mg/kg
Experimental: (§2) Routine pharmacokinetics studies were performed for Cpd. No. 5 in SD rats and beagle dogs.

FAK = biological target: T2, FAK (Homo sapiens, UniProt Q05397); assay: KINOMEscan kinase panel, FAK; assay type: binding
T2 construct: purchased LeadHunter Discovery Services (currently DiscoverX Corporation), KINOMEscan screening service
Excerpt: as §1

ALK G1269A = biological target: T3, ALK G1269A (Homo sapiens, UniProt Q9UM73, G1269A); assay: Mutant ALK kinase inhibition, Lance TR-FRET, G1269A; assay type: biochemical; settings: Table 5; ATP 100 μM
T3 construct: made in house; host or cells: SF9 insect cells
Experimental: (§3) The cytoplasmic domain (amino acid 1058-1620) of wild-type human ALK protein expressed as N-terminal GST-fusion protein was purchased from Carna Biosciences, Inc (Japan). Mutated ALK proteins were expressed in SF9 insect cells with N-terminal tags cleaved after purification. Kinase activities of all enzymes were assessed using a Lance® TR-FRET assay kit from Perkin Elmer Life Sciences (Waltham, Mass.). 2.5 μL of compound solution and 5 μL of protein solution were added into a black low volume 384 well microtiter plate which was incubated for 30 minutes with gentle shaking at room temperature, followed by adding 2.5 μL of fluorescently labeled peptide substrate (ULight™-IRS-1 (Tyr983) Peptide) and ATP mixture solution. The kinase reaction was performed in 50 mM HEPES (pH 7.5) with 1 mM EGTA, 1 mM MgCl2, and 2 mM DTT, 0.01% Tween-20 added right before the assay. Final concentrations of ATP, substrates, and DMSO were 100 μM, 20 nM, and 0.5%, respectively. […] The final mixture was incubated in the dark for 1 hour before the plate was read on a Tecan Infinite M-1000 multi-mode plate reader (Tecan, Durham N.C.) with an excitation wavelength of 320 nm. Emission intensities were measured at both 620 and 665 nm with the intensity ratio between 665 and 620 nm corresponding to the peptide substrate phosphorylation. […]

ALK F1197M = biological target: T4, ALK F1197M (Homo sapiens, UniProt Q9UM73); assay: Mutant ALK kinase inhibition, F1197M; assay type: biochemical; settings: Table 5
T4 construct: Mutated ALK proteins were expressed in SF9 insect cells with N-terminal tags cleaved after purification; fused on or other part: N-terminal tag, cleaved after purification

ALK S1206Y = biological target: T5, ALK S1206Y (Homo sapiens, UniProt Q9UM73, S1206Y); assay: Mutant ALK kinase inhibition, Lance TR-FRET, S1206Y; assay type: biochemical; settings: Table 5; ATP 100 μM
T5 construct: made in house; host or cells: SF9 insect cells
Experimental: as §3

[2] = tested on: Kappas-299 cells (NPM-ALK); assay: Cell growth inhibition assay (WST-8), Kappas-299; assay type: cell-based; settings: read-out: Kappas-299 (nM) (NPM-ALK), 50% of cell growth inhibition (IC50), WST-8, versus DMSO control
Experimental: H3122 and Kappas-299 cells were purchased from American Type Culture Collection (Manassas, Va., USA) and were used within 2 months after initiating from original stocks. All cell lines were cultured as recommended. For cell growth inhibition assay, cells were treated with different concentrations of the tested compounds, diluted from stock to culture media containing a 0.2% DMSO as the final concentration. Cell viability was determined using the WST-8 cell proliferation assay kit (Dojindo Molecular Technologies) according to manufacturer's instructions. Three independent experiments in triplicates were performed.

ALK V1180L = ALK V1180L (Homo sapiens, UniProt Q9UM73, V1180L); assay: Cell based assay, ALK V1180L; design: key: + = active; −− = inactive; settings: Table 5
INSRR = biological target: T6, INSRR (Homo sapiens, UniProt P14616); assay: KINOMEscan kinase panel, INSRR; assay type: binding
T6 construct: purchased LeadHunter Discovery Services (currently DiscoverX Corporation), KINOMEscan screening service
Excerpt: as §1

[3] = Pharmacokinetics in beagle dogs; assay type: in vivo; settings: Table 9 (beagle dogs)
Experimental: as §2

[4] = biological target: T7, wild-type human ALK protein (cytoplasmic domain, amino acid 1058-1620) (Homo sapiens, UniProt Q9UM73); assay: Wild-type ALK kinase inhibition, Lance TR-FRET assay; assay type: biochemical
T7 construct: The cytoplasmic domain (amino acid 1058-1620) of wild-type human ALK protein; purchased Carna Biosciences, Inc (Japan)
Experimental: The cytoplasmic domain (amino acid 1058-1620) of wild-type human ALK protein expressed as N-terminal GST-fusion protein was purchased from Carna Biosciences, Inc (Japan). Mutated ALK proteins were expressed in SF9 insect cells with N-terminal tags cleaved after purification. Kinase activities of all enzymes were assessed using a Lance® TR-FRET assay kit from Perkin Elmer Life Sciences (Waltham, Mass.). 2.5 μL of compound solution and 5 μL of protein solution were added into a black low volume 384 well microtiter plate which was incubated for 30 minutes with gentle shaking at room temperature, followed by adding 2.5 μL of fluorescently labeled peptide substrate (ULight™-IRS-1 (Tyr983) Peptide) and ATP mixture solution. The kinase reaction was performed in 50 mM HEPES (pH 7.5) with 1 mM EGTA, 1 mM MgCl2, and 2 mM DTT, 0.01% Tween-20 added right before the assay. Final concentrations of ATP, substrates, and DMSO were 100 μM, 20 nM, and 0.5%, respectively. […] Final ALK concentrations were 1 nM, 1 nM, InM, 128 nM, 2 nM, and 4 nM for wild-type, F1174L, L1196M, S1206Y, G1269A, and G1202R, respectively. The reaction was allowed to perform for 90 minutes in dark with gentle shaking at room temperature after which 10 μL of 20 mM EDTA and 2 nM Eu-W1024 anti-phosphotyrosine antibody (PT66) mixture solution in the detection buffer from the manufacturer was added to terminate the reaction and detect the phosphorylation of the peptide substrate. The final mixture was incubated in the dark for 1 hour before the plate was read on a Tecan Infinite M-1000 multi-mode plate reader (Tecan, Durham N.C.) with an excitation wavelength of 320 nm. Emission intensities were measured at both 620 and 665 nm with the intensity ratio between 665 and 620 nm corresponding to the peptide substrate phosphorylation. IC50 values of inhibitors were obtained by fitting the ratio of 665/620 nm vs inhibitor concentrations in a sigmoidal dose-response curve (variable slope) with a non-linear regression.

[5] = Sprague-Dawley, rat, in vivo, iv, 1 mg/kg, IV 1 mg/kg
[6] = listed as Cpd. No. 5 (solution)
[7] = listed as Cpd. No. 5 (suspension)

Cc1cc(Nc2ncc(Cl)c(Nc3ccccc3S(=O)(=O)C(C)C)n2)c(OC(C)C)cc1C1=CCN(C2CCOCC2)CC1 [Cpd. No. 5, 5-chloro-N2-(2-isopropoxy-5-methyl-4-(1-(tetrahydro-2H-pyran-4-yl)-1,2,3,6-tetrahydropyridin-4-yl)phenyl)-N4-(2-(isopropylsulfonyl)phenyl)pyrimidine-2,4-diamine]
F1174L (c) (ALK F1174L): −− (c) | Kd (LRRK2(G2019S)): 6.6 nM | Cmax [1, 5]: 234 ng/mL | Tmax [1, 5]: 4.98 min | AUC(0-t) ([1]; Sprague-Dawley, rat, in vivo, iv, 1 mg/kg, IV 1 mg/kg, read-out: AUC0-t (ng · h/mL) IV): 506 ng·h/mL | AUC(0-inf) ([1]; Sprague-Dawley, rat, in vivo, iv, 1 mg/kg, IV 1 mg/kg, read-out: AUC0-∞ (ng · h/mL) IV): 576 ng·h/mL | half-life ([1]; Sprague-Dawley, rat, in vivo, iv, 1 mg/kg, IV 1 mg/kg, read-out: t1/2 (h) IV (converted)): 3.94 h | MRT inf ([1]; Sprague-Dawley, rat, in vivo, IV 1 mg/kg): 4.54 h | clearance ([1]; Sprague-Dawley, rat, in vivo, IV 1 mg/kg, read-out: CL (iv) (converted)): 29.2 mL/min/kg | Vd ([1]; Sprague-Dawley, rat, in vivo, IV 1 mg/kg, read-out: Vss (iv)): 7.97 L/kg | F(AUC0-t) ([1]; PO 10 mg/kg vs IV 1 mg/kg, solution): 31.1% | AUC0-t (ng · h/mL) PO [1, 6]: 1759 ng·h/mL | AUC0-∞ (ng · h/mL) PO [1, 6]: 1788 ng·h/mL | Cmax(ng/mL) PO [1, 6]: 153 ng/mL | Tmax (h) PO [1, 6]: 2.67 h | t1/2 (h) PO [1, 6]: 3.93 h | AUC0-t (ng · h/mL) PO [1, 7]: 719 ng·h/mL | AUC0-∞ (ng · h/mL) PO [1, 7]: 733 ng·h/mL | Cmax(ng/mL) PO [1, 7]: 75.9 ng/mL | Tmax (h) PO [1, 7]: 3.67 h | t1/2 (h) PO [1, 7]: 4.05 h | Kd (FAK): 5.4 nM | IC50 (ALK G1269A): 4.3 nM | IC50 (ALK F1197M): 3.3 nM | IC50 (ALK S1206Y): 1.3 nM | IC50 [2]: 13 nM | V1180L (c) (ALK V1180L): + (c) | Kd (INSRR): 32 nM | F(AUC0-t) ([3]; PO 5 mg/kg vs IV 1 mg/kg): 33.3% | MRT inf ([3]; dog, in vivo, IV 1 mg/kg): 22.1 h | AUC(0-t) ([3]; dog, in vivo, IV 1 mg/kg, read-out: AUC0-t (ng · h/mL) IV): 1820 ng·h/mL | AUC(0-inf) ([3]; dog, in vivo, IV 1 mg/kg, read-out: AUC0-∞ (ng · h/mL) IV): 2140 ng·h/mL | clearance ([3]; dog, in vivo, IV 1 mg/kg, read-out: CL (iv) (converted)): 8.1 mL/min/kg | Cmax ([3]; dog, in vivo, IV 1 mg/kg, read-out: Cmax(ng/mL) IV): 314 ng/mL | Tmax ([3]; dog, in vivo, IV 1 mg/kg, read-out: Tmax (h) IV): 0.083 h | Vd ([3]; dog, in vivo, IV 1 mg/kg, read-out: Vss (iv)): 10.8 L/kg | half-life ([3]; dog, in vivo, IV 1 mg/kg, read-out: t1/2 (h) IV (converted)): 19.7 h | AUC(0-t) ([3]; dog, in vivo, PO 5 mg/kg, read-out: AUC0-t (ng · h/mL) PO): 2930 ng·h/mL | AUC(0-inf) ([3]; dog, in vivo, PO 5 mg/kg, read-out: AUC0-∞ (ng · h/mL) PO): 3710 ng·h/mL | Cmax ([3]; dog, in vivo, PO 5 mg/kg, read-out: Cmax(ng/mL) PO): 239 ng/mL | Tmax ([3]; dog, in vivo, PO 5 mg/kg, read-out: Tmax (h) PO): 1.67 h | half-life ([3]; dog, in vivo, PO 5 mg/kg, read-out: t1/2 (h) PO (converted)): 20 h | IC50 ([4]; Table 4, target not given, Cpd. No. 5 value equals WT ALK IC50 of Table 5, read-out: Inhibitory activity): 0.85 nM | IC50 ([4]; Table 5, ATP 100 μM, read-out: IC50 (nM), WT): 0.85 nM
